Data reported in paper PMC4764904 (Scientific Reports, 2016).
Marks after values point to notes of the source that are not given here. Where a SMILES comes first, the peptide text is derived from it. Where no end group is shown, it is not given here. [ ]: non-standard residue; d: D form. The star is where a group is joined. Fmoc = O=C(OCC1c2ccccc2-c2ccccc21)*

Assays:
[1] = Peptide stability in human serum by residual IP3 production; assay type: in vitro ADME; details: peptide 1 μM in 100% human serum, 37 °C, 0, 3, 6, 12, 24, 48, 72 h; residual activity read as IP3 production ([3H]-inositol) in HEK293 cells expressing GALR2; mean ± S.E., at least three independent experiments
Description: (§1) To investigate the effects of the modifications on proteolytic susceptibility, the functional activity of peptides that were incubated in 100% serum at 37 °C for 0, 3, 6, 12, 24, 48, and 72 h was determined via inositol 1,4,5-triphosphate (IP3) production in GALR2-expressing cells (Fig. 4A–C and Table 3). […] In addition, dAla4 and dGln14 substitutions contribute to longer longevity of the peptide in serum. In an additional experiment, we examined the degradation rates of the Qu mutant, as well as the Qu mutant with an N-terminal modification and/or dAla4 and dGln14 substitutions.
(§2) Figure 4 Stability of SPX mutants in the presence of FBS (A) Qu analogs in FBS (B) and human serum (C). Potency of Qu mutants toward GALR2 (D) and GALR3 (E). For stability of SPX mutants, peptides (1 μM) were incubated in serum for 0, 3, 6, 12, 24, 48, and 72 hrs. The remaining activities of the peptides were determined by measuring IP3 production by HEK293 cells that express GALR2 after the indicated times. IP3 production was expressed as percent change, where 100% indicates IP3 production by WT SPX incubated in FBS or human serum for 0 h. For potency of Qu mutants toward GALR2 and GALR3, the SRE-luc reporter vector and plasmid containing human GALR2 or GALR3 were transfected into HEK293 cells that stably expressed Gqi protein. Cells were then treated with increasing concentrations of mutant peptides, and the receptor activities were determined using the SRE-luc reporter system.
(§3) To evaluate the stability of SPX and its analogs in FBS or human serum, peptides were incubated at an initial concentration of 1 μM in 100% serum at 37 °C for 0, 3, 6, 12, 24, 48, and 72 hours. Residual peptide activity was then assessed by measuring IP3 in HEK293 cells expressing GALR2. For the IP3 assay, cells were seeded in 12-well plates at a density of 2.5 × 10^5 cells per well, and then the next day, cells were transiently transfected with 1 μg/well of plasmid containing GALR2 using the Lipofectamine 2000 (Invitrogen) transfection reagent. The day following transfection, cells were incubated in M199 media containing 1% FBS, 1% L-glutamine, 1% penicillin/streptomycin, and 1 μCi/well of myo-^3H inositol for 20 h. After a 30-min incubation in buffer A (140 mM NaCl, 20 mM Hepes, 4 mM KCl, 8 mM D-glucose, 1 mM MgCl2, 1 mM CaCl2, 1 mg/ml free fatty acid bovine serum albumin (BSA), and 10 mM LiCl at pH 7.2), cells were treated with the agonist for 40 min at 37 °C. Media was removed, and the reactions were terminated by addition of 1 ml of 10 mM cold formic acid to each well. The plates were stored at 4 °C for 30 min, and the extracts were then transferred into 6-ml plastic tubes containing 500 μl AG1–8X anion exchange columns (BIO-RAD). The tubes were gently mixed with a vortexer, and the supernatants were removed by aspiration. Two washes with 1 ml of distilled water were performed followed by two additional washes with 60 mM ammonium formate/5mM sodium tetraborate. Tritiated inositol was separated from the column by elution with 1 ml of 1 M ammonium formate/0.1 M formic acid, and 800 μl from the elution were taken from each tube and transferred into 6-ml scintillation vials. Then, 2 ml of scintillation cocktail solution (Ultima Gold^TM, Perkin Elmer, Waltham MA, USA) was added to each sample. The radioactivity of [^3H]-myo-inositol samples was measured using a TRI carb 3100TR liquid scintillation analyzer (Packard).

[2] = Peptide stability in FBS by residual IP3 production; assay type: in vitro ADME, bovine; details: for Half-life activity (h) in FBS: peptide 1 μM in 100% FBS, 37 °C, 0, 3, 6, 12, 24, 48, 72 h, residual activity read as IP3 production ([3H]-inositol) in HEK293 cells expressing GALR2, mean ± S.E., at least three independent experiments
Description: as §1, §2, §3

[3] = molecular target: T1, human GALR3 (Homo sapiens, UniProt O60755); test: SRE-luc reporter assay, GALR3;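 also: luciferase activity read in cell lysates across rising peptide concentrations, EC50 being the agonist concentration giving half-maximal stimulation from a sigmoidal nonlinear fit, Gαqi routing Gi-coupled receptor signaling through Gq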; assay type: cell-based; details: HEK293-Gqi cells transfected with SRE-luc and human GALR3; 6 h ligand treatment; mean ± S.E. of at least three independent experiments; NM = not measurable; read-out: GALR3 EC50
T1 construct: host or cells: HEK293 cells stably expressing Gαqi
T1 sequence (O60755 1-368): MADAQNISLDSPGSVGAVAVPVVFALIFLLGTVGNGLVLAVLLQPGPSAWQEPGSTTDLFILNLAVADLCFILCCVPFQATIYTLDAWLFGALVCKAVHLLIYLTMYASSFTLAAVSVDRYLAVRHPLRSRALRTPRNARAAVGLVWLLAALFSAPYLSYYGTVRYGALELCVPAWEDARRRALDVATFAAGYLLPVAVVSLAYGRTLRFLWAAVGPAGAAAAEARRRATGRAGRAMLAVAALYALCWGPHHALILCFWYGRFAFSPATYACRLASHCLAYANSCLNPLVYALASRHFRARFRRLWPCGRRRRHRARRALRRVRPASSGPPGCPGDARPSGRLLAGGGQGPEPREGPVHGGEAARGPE
Description: (§4) The generated mutant SPX peptides were incubated with cells expressing GALR2 and GALR3. […] The activities of the receptors were traced using the serum-response element-driven luciferase (SRE-luc) assay system.
(§5) The SRE-luc reporter vector and plasmid containing human GALR1, GALR2, or GALR3 were transfected into HEK293 cells that stably expressed Gqi protein. Cells were then treated with increasing concentrations of mutant peptides, and the receptor activities were determined using the SRE-luc reporter system.
(§6) HEK293 cells stably expressing Gαqi, which mediates Gαi-coupled receptor activation by stimulating Gαq-dependent signaling pathways[59], were maintained in Dulbecco’s modified Eagle’s medium (DMEM) supplemented with 10% FBS, 100 U/ml penicillin G, and 100 μg/ml streptomycin (Invitrogen). Cells were seeded in 48-well plates at a density of 2 × 10^4 cells per well, one day before transfection. A mixture containing 75 ng of the SRE-luc reporter construct, 75 ng of expression plasmid, and 2 μl of Effectene reagent (Qiagen, Chatsworth, CA, USA) was prepared and added to each well according to the manufacturer’s instructions. Cells were then maintained in serum-free DMEM for 16–18 h before treatment with the ligands. Approximately 48 h after transfection, cells were treated with the respective ligands for 6 h. Cells were lysed by the addition of 100 μl lysis buffer. The luciferase activity in 50 μl of cell extract was determined by a luciferase assay system according to the standard protocol for the Synergy 2 Multi-Mode Microplate Reader (BioTek, Winooski, VT, USA).
(§7) For in vitro studies data analysis was performed by nonlinear regression with a sigmoidal dose-response. The agonist concentrations that induced half-maximal stimulation (EC50) or half-maximal inhibition of binding (IC50) were calculated with GraphPad PRISM4 software (GraphPad Software Inc., San Diego, CA, USA). […] All data are presented as mean ± S.E. of at least three independent experiments and a P value of P < 0.05 was considered statistically significant.

[4] = molecular target: T2, human GALR2 (Homo sapiens, UniProt O43603); test: SRE-luc reporter assay, GALR2;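 also: luciferase activity read in cell lysates after exposure to rising peptide concentrations, EC50 being the agonist level giving half-maximal stimulation from a sigmoidal nonlinear regression fit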; assay type: cell-based; details: HEK293-Gqi cells transfected with SRE-luc and human GALR2; 6 h ligand treatment; mean ± S.E. of at least three independent experiments; NM = not measurable; read-out: GALR2 EC50
T2 construct: host or cells: HEK293 cells stably expressing Gαqi
T2 sequence (O43603 1-387): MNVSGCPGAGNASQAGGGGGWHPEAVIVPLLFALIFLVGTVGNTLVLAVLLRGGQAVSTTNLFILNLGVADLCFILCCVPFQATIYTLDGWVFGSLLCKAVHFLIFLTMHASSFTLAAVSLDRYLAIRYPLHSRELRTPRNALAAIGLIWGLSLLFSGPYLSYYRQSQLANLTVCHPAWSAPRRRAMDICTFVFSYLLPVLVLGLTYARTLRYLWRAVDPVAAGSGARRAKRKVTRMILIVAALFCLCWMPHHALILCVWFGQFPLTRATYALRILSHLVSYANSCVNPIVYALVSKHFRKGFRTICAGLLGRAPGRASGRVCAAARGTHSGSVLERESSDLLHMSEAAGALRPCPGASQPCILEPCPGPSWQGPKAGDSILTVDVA
Description: as §4, §5, §6, §7

| Molecule | Half-life activity (h) in Human Serum [1] | Half-life activity (h) in FBS [2] | EC50 [3] | EC50 [4] | Initial activity abolished after incubation in FBS ([2]; 12-h incubation in 100% FBS, 37 °C, peptide 1 μM, IP3 production in GALR2-expressing cells) |
| --- | --- | --- | --- | --- | --- |
| CC(C)C[C@H](NC(=O)[C@H](C)NC(=O)[C@H](C)NC(=O)[C@H](CC(N)=O)NC(=O)[C@@H](C)NC(=O)[C@@H](NC(=O)[C@H](Cc1c[nH]c2ccccc12)NC(=O)[C@H](CC(N)=O)NC(=O)OCC1c2ccccc2-c2ccccc21)[C@@H](C)O)C(=O)N[C@@H](Cc1ccc(O)cc1)C(=O)N[C@@H](CC(C)C)C(=O)N[C@@H](Cc1ccccc1)C(=O)NCC(=O)N1CCC[C@H]1C(=O)N[C@H](CCC(N)=O)C(N)=O [Fmoc-Qu-dA4-dQ14] (Fmoc-NWT[dA]NAALYLFGP[dQ]-NH2) | 8.8 ± 0.2 ^a h | 11.8 ± 0.2 ^a h |  |  |  |
| CC(C)C[C@H](NC(=O)[C@H](C)NC(=O)[C@H](C)NC(=O)[C@H](CC(N)=O)NC(=O)[C@@H]1CCCN1C(=O)[C@@H](NC(=O)[C@H](Cc1c[nH]c2ccccc12)NC(=O)[C@H](CC(N)=O)NC(=O)OCC1c2ccccc2-c2ccccc21)[C@@H](C)O)C(=O)N[C@@H](Cc1ccc(O)cc1)C(=O)N[C@@H](CC(C)C)C(=O)N[C@@H](Cc1ccccc1)C(=O)NCC(=O)N1CCC[C@H]1C(=O)N[C@H](CCC(N)=O)C(N)=O [Fmoc-Qu-dQ14] (Fmoc-NWTPNAALYLFGP[dQ]-NH2) | 6.3 ± 0.1 ^a h | 8.4 ± 0.3 ^a h |  |  |  |
| CC(C)C[C@H](NC(=O)[C@H](C)NC(=O)[C@H](C)NC(=O)[C@H](CC(N)=O)NC(=O)[C@@H]1CCCN1C(=O)[C@@H](NC(=O)[C@H](Cc1c[nH]c2ccccc12)NC(=O)[C@H](CC(N)=O)NC(=O)OCC1c2ccccc2-c2ccccc21)[C@@H](C)O)C(=O)N[C@@H](Cc1ccc(O)cc1)C(=O)N[C@@H](CC(C)C)C(=O)N[C@@H](Cc1ccccc1)C(=O)NCC(=O)N1CCC[C@H]1C(=O)N[C@@H](CCC(N)=O)C(N)=O [Fmoc-Qu] (Fmoc-NWTPNAALYLFGPQ-NH2) | 4.9 ± 0.1 ^a h | 6.1 ± 0.2 ^a h |  |  |  |
| CSCC[C@H](NC(=O)[C@H](C)NC(=O)[C@H](CCC(N)=O)NC(=O)[C@@H]1CCCN1C(=O)[C@@H](NC(=O)[C@H](Cc1c[nH]c2ccccc12)NC(=O)[C@@H](N)CC(N)=O)[C@@H](C)O)C(=O)N[C@@H](CC(C)C)C(=O)N[C@@H](Cc1ccc(O)cc1)C(=O)N[C@@H](CC(C)C)C(=O)N[C@@H](CCCCN)C(=O)NCC(=O)N[C@@H](C)C(=O)N[C@@H](CCC(N)=O)C(N)=O [WT, spexin, reference compound] |  | 4.1 ± 0.5 h | 112 ± 14.5 nM | 45.7 ± 5.9 nM | 80% |
| CSCC[C@H](NC(=O)[C@H](C)NC(=O)[C@H](CCC(N)=O)NC(=O)[C@@H](C)NC(=O)[C@@H](NC(=O)[C@H](Cc1c[nH]c2ccccc12)NC(=O)[C@@H](N)CC(N)=O)[C@@H](C)O)C(=O)N[C@@H](CC(C)C)C(=O)N[C@@H](Cc1ccc(O)cc1)C(=O)N[C@@H](CC(C)C)C(=O)N[C@@H](CCCCN)C(=O)NCC(=O)N[C@@H](C)C(=O)N[C@@H](CCC(N)=O)C(N)=O [dA4] (H-NWT[dA]QAMLYLKGAQ-NH2) |  | 8.7 ± 0.4 ^a h | 112 ± 23.1 nM | 97.7 ± 18.3 nM |  |
| CC(C)C[C@H](NC(=O)[C@H](C)NC(=O)[C@H](C)NC(=O)[C@H](CC(N)=O)NC(=O)[C@@H]1CCCN1C(=O)[C@@H](NC(=O)[C@H](Cc1c[nH]c2ccccc12)NC(=O)[C@H](N)CC(N)=O)[C@@H](C)O)C(=O)N[C@@H](Cc1ccc(O)cc1)C(=O)N[C@@H](CC(C)C)C(=O)N[C@@H](Cc1ccccc1)C(=O)NCC(=O)N1CCC[C@H]1C(=O)N[C@@H](CCC(N)=O)C(N)=O [dN1-Qu] (H-[dN]WTPNAALYLFGPQ-NH2) | 2.9 ± 0.1 ^a h | 4.2 ± 0.1 ^a h |  |  |  |
| CSCC[C@H](NC(=O)[C@H](C)NC(=O)[C@H](CCC(N)=O)NC(=O)[C@@H]1CCCN1C(=O)[C@@H](NC(=O)[C@H](Cc1c[nH]c2ccccc12)NC(=O)[C@H](N)CC(N)=O)[C@@H](C)O)C(=O)N[C@@H](CC(C)C)C(=O)N[C@@H](Cc1ccc(O)cc1)C(=O)N[C@@H](CC(C)C)C(=O)N[C@@H](CCCCN)C(=O)NCC(=O)N[C@@H](C)C(=O)N[C@@H](CCC(N)=O)C(N)=O [dN1] |  | 10.3 ± 0.3 ^a h | 38.9 ± 8 nM | 21.4 ± 5.54 nM |  |
| CSCC[C@H](NC(=O)[C@H](C)NC(=O)[C@H](CCC(N)=O)NC(=O)[C@@H]1CCCN1C(=O)[C@@H](NC(=O)[C@H](Cc1c[nH]c2ccccc12)NC(=O)[C@@H](N)CC(N)=O)[C@@H](C)O)C(=O)N[C@@H](CC(C)C)C(=O)N[C@@H](Cc1ccc(O)cc1)C(=O)N[C@@H](CC(C)C)C(=O)N[C@@H](CCCCN)C(=O)NCC(=O)N[C@@H](C)C(=O)N[C@H](CCC(N)=O)C(N)=O [dQa14] |  | 5.6 ± 0.2 ^a h | 324 ± 66.6 nM | 77.6 ± 16 nM |  |
| CSCC[C@H](NC(=O)[C@H](C)NC(=O)[C@H](CCC(N)=O)NC(=O)[C@@H]1CCCN1C(=O)[C@@H](NC(=O)[C@@H](Cc1c[nH]c2ccccc12)NC(=O)[C@@H](N)CC(N)=O)[C@@H](C)O)C(=O)N[C@@H](CC(C)C)C(=O)N[C@@H](Cc1ccc(O)cc1)C(=O)N[C@@H](CC(C)C)C(=O)N[C@@H](CCCCN)C(=O)NCC(=O)N[C@@H](C)C(=O)N[C@@H](CCC(N)=O)C(N)=O [dW2] |  | 4.5 ± 0.6 h | 138 ± 23.2 nM | 100 ± 18.7 nM |  |
| NWTPNAALYLFGPQ-NH2 [N5A7F11P13(Qu)] | 2.0 ± 0.2 h | 2.6 ± 0.2 h | > 10000 nM | 55 ± 9.24 nM |  |
